PubChem BioAssay AID743304 (Broad Institute, 2014)
Several values for one entry are separate records, joined by “and”; a condition that tells them apart may be missing. Equal values may be shown once. Activity calls are given as the source filed them.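 How the source made its calls: active means signal drop whose fitted half-maximal dose is no more than twice the top valid dose; inconclusive means flat curve with 30 to 70% inhibition, or unreliable fit; inactive means the rest, including rising signal.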

Tests used:
[1] = tested on: C. neoformans growth with sorbitol, alamar blue, 24 h; experiment: antifungal growth inhibition under osmotic support – sorbitol, alamar blue, dry powder, set 3, mechanism study for C. neoformans lysis project, dose response (AID 743304)
[2] = as above; conditions: C. neoformans growth with sorbitol, alamar blue, 24 h; at 35 µM (top of the series)

| Compound | AC50 [1] | activity change, negative = inhibition [2] |
| --- | --- | --- |
| S=c1[nH]c2ccccc2n1CCOc1ccc(Cl)cc1 | 6.3 µM |  |
| Fc1cccc(OCCn2c(=S)[nH]c3ccccc32)c1 | 20.5 µM |  |
| CC(C)(C)c1ccc(OCCn2c(=S)[nH]c3ccccc32)cc1 | 4.94 µM |  |
| CC(C)c1ccccc1OCCn1c(=S)[nH]c2ccccc21 | 18.4 µM |  |
| Cc1ccc(C(C)C)c(OCCn2c(=S)[nH]c3c(Cl)cccc32)c1 |  | -14.9% (inactive) |
| c1ccc(OCCn2cnc3ccccc32)cc1 |  | 39.4% (inactive) |
| Cc1cccc(OCCn2c(=S)[nH]c3c(F)cccc32)c1 | 16.4 µM and 16.6 µM |  |
| Cc1ccc(OCCn2c(=S)[nH]c3ccccc32)cc1 | 6.11 µM |  |
| Cc1cccc(OCCn2c(=S)[nH]c3ccc(C(F)(F)F)cc32)c1 |  | 24.8% (inactive) |
| O=c1[nH]c2ccccc2n1CCOc1ccccc1 | 24.1 µM |  |
| CC(C)c1ccc(OCCn2c(=S)[nH]c3ccccc32)cc1 | 4.21 µM |  |
| Cc1ccc(C(C)C)c(OCCn2c(=S)[nH]c3ccc(Cl)cc32)c1 |  | 36.9% (inactive) |
| S=c1[nH]c2cccc(Cl)c2n1CCOc1ccccc1 | 5.74 µM and 5.16 µM |  |
| CC(C)c1ccccc1NCCn1c(=S)[nH]c2ccccc21 |  | 1.72% (inactive) |
| Cc1ccc(OCCn2c(C)nc3ccccc32)cc1 | 6.48 µM |  |
| CC(C)(C)c1ccc(OCCn2cnc3ccccc32)cc1 | 8.05 µM |  |
| Fc1cccc2c1[nH]c(=S)n2CCOc1ccccc1 | 21.4 µM and 22.2 µM and 23.1 µM |  |
| Cc1ccc(OCCn2cnc3ccccc32)c(C(C)C)c1 | 24 µM |  |
| Cc1ccc(C(C)C)c(OCCn2c(=S)[nH]c3cccc(C)c32)c1 | 16.4 µM |  |
| COc1ccccc1OCCn1c(=S)[nH]c2ccccc21 |  | 36.1% (inactive) |
| Fc1ccc2[nH]c(=S)n(CCOc3ccccc3)c2c1 | 23.5 µM |  |
| Cc1ccc(C(C)C)c(OCCn2c(CO)nc3ccccc32)c1 | 33.6 µM |  |
| Cc1ccc(OCCn2c(SCCO)nc3ccccc32)c(C(C)C)c1 | 8.48 µM |  |
| Fc1ccc2c(c1)[nH]c(=S)n2CCOc1ccccc1 | 25 µM and 23.1 µM |  |
| Cc1ccc(C(C)C)c(OCCn2c(=S)[nH]c3c(F)cccc32)c1 |  | 48.2% (inactive) |
| COc1cccc(OCCn2c(=S)[nH]c3ccccc32)c1 | 26.1 µM |  |

| Compound | AC50 [1] | activity change, negative = inhibition [2] |
| --- | --- | --- |
| Fc1ccccc1OCCn1c(=S)[nH]c2ccccc21 | 21.9 µM |  |
| Cc1ccccc1OCCn1c(=S)[nH]c2ccccc21 | 31.2 µM |  |
| Fc1ccc(OCCn2c(=S)[nH]c3ccccc32)cc1 | 27.3 µM |  |
| COc1ccc(OCCn2c(=S)[nH]c3ccccc32)cc1 | 26.2 µM |  |
| Cc1ccc(OCCn2c(=S)[nH]c3ccccc32)c(C)c1 |  | 7.99% (inactive) |
| Cc1ccc(OCCn2c(=S)[nH]c3ccccc32)c(C(C)C)c1 | 10.2 µM and 6.37 µM |  |
| S=c1[nH]c2cc(Cl)ccc2n1CCOc1ccccc1 |  | 17.6% (inactive) |
| Cc1ccc(C(C)C)c(OCCn2c(=S)[nH]c3cccc(Cl)c32)c1 | 7.25 µM |  |
| Cc1cccc(OCCn2c(=S)[nH]c3ccccc32)c1 | 22.4 µM |  |
| Cc1ccc(C(C)C)c(OCCn2c(=S)[nH]c3ccccc32)c1 | 6.96 µM and 7.67 µM |  |
| Cc1ccc2c(c1)[nH]c(=S)n2CCOc1ccccc1 | 11.6 µM and 12.9 µM |  |
| Cc1ccc(C(C)C)c(OCCn2c(=S)[nH]c3cc(F)ccc32)c1 |  | 9.32% (inactive) |
| CC(C)(C)c1ccccc1OCCn1c(=S)[nH]c2ccccc21 | 8.32 µM |  |
| Cc1cccc(OCCn2c(=S)[nH]c3ccccc32)c1C | 6.75 µM |  |
| Cc1cccc(OCCn2c(=S)[nH]c3cc(C(F)(F)F)ccc32)c1 |  | 8.97% (inactive) |
| S=c1[nH]c2ccccc2n1CCOc1ccccc1 | 24.5 µM |  |
| Cc1cccc(OCCn2c(=S)[nH]c3cc(F)ccc32)c1 | 11.2 µM and 10.4 µM |  |
| CCOc1ccc(OCCn2c(=S)[nH]c3ccccc32)cc1 | 11.1 µM |  |
| Cc1ccc(C)c(OCCn2c(=S)[nH]c3ccccc32)c1 |  | -7.02% (inactive) |
| Cc1ccc(C(C)C)c(OCCn2c(=S)[nH]c3c(C)cccc32)c1 |  | 34.1% (inactive) |
| S=c1[nH]c2ccccc2n1CCOc1ccccc1Cl | 24 µM |  |
| Cc1ccc(C(C)C)c(OCCn2c(=S)[nH]c3ccc(F)cc32)c1 |  | 14.7% (inactive) |
| Cc1cccc2[nH]c(=S)n(CCOc3ccccc3)c12 | 14.2 µM |  |
| Cc1ccc(C(C)C)c(OCCn2c(=S)[nH]c3cccc(F)c32)c1 | 10.9 µM |  |
| Cc1ccc(OCCn2cnc3ccccc32)cc1 | 5.96 µM |  |
